Measurements taken from ChEMBL document CHEMBL4507293 (2021).

Legend:
[1] = molecular target: cGMP-dependent 3',5'-cyclic phosphodiesterase (Homo sapiens, UniProt O00408); experiment: Biochemical assay (PDE2A)
[2] = molecular target: Activin receptor type-1-like (Homo sapiens) (UniProt P37023); conditions: Compound concentration 100.0 nM
[3] = molecular target: RAC-alpha serine/threonine-protein kinase (Homo sapiens) (UniProt P31749); conditions: Compound concentration 100.0 nM
[4] = molecular target: RAC-beta serine/threonine-protein kinase (Homo sapiens) (UniProt P31751); conditions: Compound concentration 100.0 nM
[5] = molecular target: RAC-gamma serine/threonine-protein kinase (Homo sapiens) (UniProt Q9Y243); conditions: Compound concentration 100.0 nM
[6] = test system: ALK tyrosine kinase receptor (Homo sapiens), Q9UM73 [C1156Y]; conditions: Compound concentration 100.0 nM
Chain of ALK tyrosine kinase receptor (Homo sapiens), Q9UM73 [C1156Y] (Q9UM73 whole entry C1156Y, looked up): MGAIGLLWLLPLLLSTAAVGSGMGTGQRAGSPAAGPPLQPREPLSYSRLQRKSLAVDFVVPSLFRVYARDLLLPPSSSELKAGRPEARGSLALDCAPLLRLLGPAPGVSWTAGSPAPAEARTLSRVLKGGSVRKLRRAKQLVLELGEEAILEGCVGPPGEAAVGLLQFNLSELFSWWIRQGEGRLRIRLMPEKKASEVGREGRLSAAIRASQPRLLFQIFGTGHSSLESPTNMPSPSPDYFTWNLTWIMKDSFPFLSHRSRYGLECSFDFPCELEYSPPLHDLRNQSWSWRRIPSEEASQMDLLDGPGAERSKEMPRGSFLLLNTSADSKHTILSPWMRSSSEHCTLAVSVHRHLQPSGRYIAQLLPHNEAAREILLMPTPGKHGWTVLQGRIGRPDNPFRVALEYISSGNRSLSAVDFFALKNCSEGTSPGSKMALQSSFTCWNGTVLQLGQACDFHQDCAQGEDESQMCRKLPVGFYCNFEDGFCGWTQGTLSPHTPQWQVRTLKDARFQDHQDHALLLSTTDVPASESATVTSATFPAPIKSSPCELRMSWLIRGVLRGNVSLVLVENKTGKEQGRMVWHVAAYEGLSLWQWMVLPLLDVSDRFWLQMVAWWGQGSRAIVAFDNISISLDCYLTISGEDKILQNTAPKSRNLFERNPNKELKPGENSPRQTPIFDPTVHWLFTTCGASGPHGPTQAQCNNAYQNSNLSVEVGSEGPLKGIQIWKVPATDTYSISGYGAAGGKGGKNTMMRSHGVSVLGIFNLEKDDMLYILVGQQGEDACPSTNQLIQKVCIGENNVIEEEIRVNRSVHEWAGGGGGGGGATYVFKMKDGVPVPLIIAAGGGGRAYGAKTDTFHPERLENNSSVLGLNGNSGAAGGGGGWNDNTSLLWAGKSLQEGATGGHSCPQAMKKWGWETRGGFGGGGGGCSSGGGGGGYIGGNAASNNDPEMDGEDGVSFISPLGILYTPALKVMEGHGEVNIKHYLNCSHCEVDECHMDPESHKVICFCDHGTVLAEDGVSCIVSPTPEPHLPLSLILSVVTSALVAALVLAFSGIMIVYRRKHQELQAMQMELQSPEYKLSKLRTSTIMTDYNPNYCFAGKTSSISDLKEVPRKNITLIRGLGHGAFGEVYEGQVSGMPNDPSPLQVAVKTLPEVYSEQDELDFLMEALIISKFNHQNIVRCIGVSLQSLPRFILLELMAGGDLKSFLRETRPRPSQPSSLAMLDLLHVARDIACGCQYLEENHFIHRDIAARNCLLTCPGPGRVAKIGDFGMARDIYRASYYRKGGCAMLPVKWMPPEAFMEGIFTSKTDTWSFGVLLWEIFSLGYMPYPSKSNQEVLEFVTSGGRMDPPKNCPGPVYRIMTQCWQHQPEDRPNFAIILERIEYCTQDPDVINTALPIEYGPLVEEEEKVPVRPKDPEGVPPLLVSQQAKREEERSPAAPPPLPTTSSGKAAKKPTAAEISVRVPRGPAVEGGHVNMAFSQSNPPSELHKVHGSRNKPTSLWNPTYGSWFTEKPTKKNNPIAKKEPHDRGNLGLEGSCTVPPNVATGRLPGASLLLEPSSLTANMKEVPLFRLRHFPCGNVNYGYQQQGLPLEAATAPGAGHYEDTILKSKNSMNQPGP

[7] = molecular target: Cyclin-dependent kinase 4 (Homo sapiens) (UniProt P11802); conditions: Compound concentration 100.0 nM
[8] = molecular target: Serine/threonine-protein kinase Chk2 (Homo sapiens) (UniProt O96017); conditions: Compound concentration 100.0 nM
Chain of Serine/threonine-protein kinase Chk2 (Homo sapiens) (O96017 whole entry, canonical isoform): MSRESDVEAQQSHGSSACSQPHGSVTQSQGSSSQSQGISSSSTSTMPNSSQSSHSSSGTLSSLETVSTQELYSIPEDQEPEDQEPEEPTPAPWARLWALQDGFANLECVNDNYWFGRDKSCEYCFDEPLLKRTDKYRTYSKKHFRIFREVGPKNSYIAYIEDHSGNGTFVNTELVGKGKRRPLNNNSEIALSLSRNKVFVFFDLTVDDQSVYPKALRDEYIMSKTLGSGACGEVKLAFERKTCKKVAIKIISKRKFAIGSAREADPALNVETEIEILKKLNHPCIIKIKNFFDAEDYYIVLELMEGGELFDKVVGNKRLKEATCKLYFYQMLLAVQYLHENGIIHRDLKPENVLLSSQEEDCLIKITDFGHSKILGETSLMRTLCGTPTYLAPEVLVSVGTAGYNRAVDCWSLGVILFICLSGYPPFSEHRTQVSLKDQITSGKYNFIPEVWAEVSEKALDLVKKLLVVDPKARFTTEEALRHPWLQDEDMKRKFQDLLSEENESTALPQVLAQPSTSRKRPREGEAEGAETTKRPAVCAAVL

[9] = molecular target: Casein kinase I isoform epsilon (Homo sapiens) (UniProt P49674); conditions: Compound concentration 100.0 nM
[10] = molecular target: Serine/threonine-protein kinase 17B (Homo sapiens) (UniProt O94768); conditions: Compound concentration 100.0 nM
[11] = test system: Epidermal growth factor receptor (Homo sapiens), P00533 [UNDEFINED MUTATION]; conditions: Compound concentration 100.0 nM
[12] = test system: Epidermal growth factor receptor (Homo sapiens), P00533 [T790M]; conditions: Compound concentration 100.0 nM
[13] = molecular target: Ephrin type-A receptor 2 (Homo sapiens) (UniProt P29317); conditions: Compound concentration 100.0 nM
[14] = molecular target: Ephrin type-B receptor 1 (Homo sapiens) (UniProt P54762); conditions: Compound concentration 100.0 nM
[15] = molecular target: Receptor tyrosine-protein kinase erbB-2 (Homo sapiens) (UniProt P04626); conditions: Compound concentration 100.0 nM
[16] = molecular target: Receptor tyrosine-protein kinase erbB-3 (Homo sapiens) (UniProt P21860); conditions: Compound concentration 100.0 nM
[17] = molecular target: Mitogen-activated protein kinase 15 (Homo sapiens) (UniProt Q8TD08); conditions: Compound concentration 100.0 nM
[18] = molecular target: Fibroblast growth factor receptor 4 (Homo sapiens) (UniProt P22455); conditions: Compound concentration 100.0 nM
[19] = molecular target: Inhibitor of nuclear factor kappa-B kinase subunit epsilon (Homo sapiens) (UniProt Q14164); conditions: Compound concentration 100.0 nM
Chain of Inhibitor of nuclear factor kappa-B kinase subunit epsilon (Homo sapiens) (Q14164 whole entry): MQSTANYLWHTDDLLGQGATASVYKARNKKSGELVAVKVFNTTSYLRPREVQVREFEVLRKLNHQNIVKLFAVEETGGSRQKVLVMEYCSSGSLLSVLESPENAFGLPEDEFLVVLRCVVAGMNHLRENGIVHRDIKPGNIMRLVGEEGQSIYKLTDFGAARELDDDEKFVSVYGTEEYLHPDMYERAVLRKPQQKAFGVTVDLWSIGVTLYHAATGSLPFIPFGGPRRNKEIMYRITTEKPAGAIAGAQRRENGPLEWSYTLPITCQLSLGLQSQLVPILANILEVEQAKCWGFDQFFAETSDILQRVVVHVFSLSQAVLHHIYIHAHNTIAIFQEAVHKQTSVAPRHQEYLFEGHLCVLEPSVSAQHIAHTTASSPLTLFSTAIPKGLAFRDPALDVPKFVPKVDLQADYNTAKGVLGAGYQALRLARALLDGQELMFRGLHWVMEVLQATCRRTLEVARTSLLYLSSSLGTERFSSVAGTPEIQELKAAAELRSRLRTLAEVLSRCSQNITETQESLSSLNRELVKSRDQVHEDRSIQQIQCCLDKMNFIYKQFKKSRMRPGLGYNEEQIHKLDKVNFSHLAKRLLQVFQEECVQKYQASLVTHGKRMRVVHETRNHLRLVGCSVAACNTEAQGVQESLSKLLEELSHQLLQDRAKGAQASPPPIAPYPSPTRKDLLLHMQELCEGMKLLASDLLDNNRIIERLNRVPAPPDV

[20] = molecular target: Serine/threonine-protein kinase LATS1 (Homo sapiens) (UniProt O95835); conditions: Compound concentration 100.0 nM
[21] = molecular target: Tyrosine-protein kinase Lyn (Homo sapiens) (UniProt P07948); conditions: Compound concentration 100.0 nM
[22] = molecular target: Mitogen-activated protein kinase kinase kinase 4 (Homo sapiens) (UniProt Q9Y6R4); conditions: Compound concentration 100.0 nM
[23] = molecular target: Mitogen-activated protein kinase kinase kinase kinase 4 (Homo sapiens) (UniProt O95819); conditions: Compound concentration 100.0 nM
Chain of Mitogen-activated protein kinase kinase kinase kinase 4 (Homo sapiens) (O95819 2-1239 limits assumed): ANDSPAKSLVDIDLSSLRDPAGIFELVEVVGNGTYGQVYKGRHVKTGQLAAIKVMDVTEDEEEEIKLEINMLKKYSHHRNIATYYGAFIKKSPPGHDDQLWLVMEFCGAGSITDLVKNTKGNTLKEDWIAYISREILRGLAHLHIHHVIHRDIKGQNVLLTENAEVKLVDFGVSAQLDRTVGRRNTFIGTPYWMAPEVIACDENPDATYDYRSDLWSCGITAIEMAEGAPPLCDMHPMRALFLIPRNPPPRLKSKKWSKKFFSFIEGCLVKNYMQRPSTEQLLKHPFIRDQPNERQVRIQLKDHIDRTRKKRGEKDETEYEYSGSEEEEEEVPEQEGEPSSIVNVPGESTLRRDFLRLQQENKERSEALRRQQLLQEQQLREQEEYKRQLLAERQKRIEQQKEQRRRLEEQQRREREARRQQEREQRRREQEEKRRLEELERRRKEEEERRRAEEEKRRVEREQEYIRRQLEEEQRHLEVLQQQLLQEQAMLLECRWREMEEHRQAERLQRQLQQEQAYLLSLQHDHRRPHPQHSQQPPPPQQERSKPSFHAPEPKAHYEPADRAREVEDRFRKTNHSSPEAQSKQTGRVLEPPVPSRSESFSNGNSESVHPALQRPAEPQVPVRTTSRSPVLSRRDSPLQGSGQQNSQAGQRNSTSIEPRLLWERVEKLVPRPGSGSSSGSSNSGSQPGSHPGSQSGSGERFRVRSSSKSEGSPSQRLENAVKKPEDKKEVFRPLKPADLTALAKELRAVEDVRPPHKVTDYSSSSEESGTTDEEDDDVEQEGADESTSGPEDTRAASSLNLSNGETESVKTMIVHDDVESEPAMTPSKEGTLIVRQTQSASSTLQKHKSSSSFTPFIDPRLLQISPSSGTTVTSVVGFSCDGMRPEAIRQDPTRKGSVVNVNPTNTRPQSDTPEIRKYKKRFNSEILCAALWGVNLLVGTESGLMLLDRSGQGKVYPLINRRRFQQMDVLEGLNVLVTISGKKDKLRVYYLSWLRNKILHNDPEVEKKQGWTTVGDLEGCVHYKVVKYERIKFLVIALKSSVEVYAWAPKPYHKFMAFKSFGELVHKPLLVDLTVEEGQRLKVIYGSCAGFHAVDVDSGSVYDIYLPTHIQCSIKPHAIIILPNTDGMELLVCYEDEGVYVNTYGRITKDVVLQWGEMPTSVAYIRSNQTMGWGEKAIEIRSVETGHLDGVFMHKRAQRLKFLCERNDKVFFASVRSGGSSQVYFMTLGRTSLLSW

[24] = molecular target: MAP kinase-activated protein kinase 5 (Homo sapiens) (UniProt Q8IW41); conditions: Compound concentration 100.0 nM
[25] = molecular target: Serine/threonine-protein kinase MARK1 (Homo sapiens) (UniProt Q9P0L2); conditions: Compound concentration 100.0 nM
[26] = molecular target: Dual specificity mitogen-activated protein kinase kinase 2 (Homo sapiens) (UniProt P36507); conditions: Compound concentration 100.0 nM
[27] = molecular target: Serine/threonine-protein kinase 4 (Homo sapiens) (UniProt Q13043); conditions: Compound concentration 100.0 nM
Chain of Serine/threonine-protein kinase 4 (Homo sapiens) (Q13043 whole entry): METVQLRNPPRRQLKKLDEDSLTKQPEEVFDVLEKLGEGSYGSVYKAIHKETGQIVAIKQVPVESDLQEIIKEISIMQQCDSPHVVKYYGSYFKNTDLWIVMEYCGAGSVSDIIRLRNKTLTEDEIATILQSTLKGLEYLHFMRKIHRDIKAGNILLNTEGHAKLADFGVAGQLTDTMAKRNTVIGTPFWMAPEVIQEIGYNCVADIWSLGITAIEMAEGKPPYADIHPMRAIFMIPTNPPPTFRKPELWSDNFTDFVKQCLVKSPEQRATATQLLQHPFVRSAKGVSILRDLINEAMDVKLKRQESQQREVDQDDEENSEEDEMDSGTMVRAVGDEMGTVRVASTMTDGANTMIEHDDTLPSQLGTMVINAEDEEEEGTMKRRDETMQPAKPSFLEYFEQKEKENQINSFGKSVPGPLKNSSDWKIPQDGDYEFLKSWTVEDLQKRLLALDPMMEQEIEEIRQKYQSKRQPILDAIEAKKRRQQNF

[28] = molecular target: Serine/threonine-protein kinase Nek3 (Homo sapiens) (UniProt P51956); conditions: Compound concentration 100.0 nM
[29] = molecular target: Serine/threonine-protein kinase NIM1 (Homo sapiens) (UniProt Q8IY84); conditions: Compound concentration 100.0 nM
[30] = molecular target: Serine/threonine-protein kinase PAK 6 (Homo sapiens) (UniProt Q9NQU5); conditions: Compound concentration 100.0 nM
[31] = molecular target: Serine/threonine-protein kinase PLK2 (Homo sapiens) (UniProt Q9NYY3); conditions: Compound concentration 100.0 nM
[32] = molecular target: Serine/threonine-protein kinase PLK3 (Homo sapiens) (UniProt Q9H4B4); conditions: Compound concentration 100.0 nM
[33] = molecular target: RAF proto-oncogene serine/threonine-protein kinase (Homo sapiens) (UniProt P04049); conditions: Compound concentration 100.0 nM
[34] = molecular target: Ribosomal protein S6 kinase alpha-3 (Homo sapiens) (UniProt P51812); conditions: Compound concentration 100.0 nM
[35] = molecular target: Ribosomal protein S6 kinase alpha-2 (Homo sapiens) (UniProt Q15349); conditions: Compound concentration 100.0 nM
[36] = molecular target: Serine/threonine-protein kinase Sgk1 (Homo sapiens) (UniProt O00141); conditions: Compound concentration 100.0 nM
[37] = molecular target: TGF-beta receptor type-1 (Homo sapiens) (UniProt P36897); conditions: Compound concentration 100.0 nM
[38] = molecular target: NT-3 growth factor receptor (Homo sapiens) (UniProt Q16288); conditions: Compound concentration 100.0 nM
[39] = molecular target: T1, Alpha-2C adrenergic receptor (Homo sapiens) (UniProt P18825); conditions: Compound concentration 10.0 uM
T1 sequence (whole entry): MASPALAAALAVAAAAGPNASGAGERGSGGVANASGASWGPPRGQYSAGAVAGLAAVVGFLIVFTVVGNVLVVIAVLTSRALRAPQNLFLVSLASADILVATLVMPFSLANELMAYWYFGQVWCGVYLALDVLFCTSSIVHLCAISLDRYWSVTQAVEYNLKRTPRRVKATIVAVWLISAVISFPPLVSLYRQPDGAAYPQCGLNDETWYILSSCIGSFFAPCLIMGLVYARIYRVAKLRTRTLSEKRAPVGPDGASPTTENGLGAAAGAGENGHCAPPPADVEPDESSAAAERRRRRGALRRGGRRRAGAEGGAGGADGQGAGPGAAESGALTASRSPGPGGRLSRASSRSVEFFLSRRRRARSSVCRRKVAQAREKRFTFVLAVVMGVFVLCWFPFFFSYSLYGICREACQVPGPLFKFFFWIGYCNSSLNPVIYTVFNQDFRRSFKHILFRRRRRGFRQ

Chain of RAC-alpha serine/threonine-protein kinase (Homo sapiens) (P31749 whole entry): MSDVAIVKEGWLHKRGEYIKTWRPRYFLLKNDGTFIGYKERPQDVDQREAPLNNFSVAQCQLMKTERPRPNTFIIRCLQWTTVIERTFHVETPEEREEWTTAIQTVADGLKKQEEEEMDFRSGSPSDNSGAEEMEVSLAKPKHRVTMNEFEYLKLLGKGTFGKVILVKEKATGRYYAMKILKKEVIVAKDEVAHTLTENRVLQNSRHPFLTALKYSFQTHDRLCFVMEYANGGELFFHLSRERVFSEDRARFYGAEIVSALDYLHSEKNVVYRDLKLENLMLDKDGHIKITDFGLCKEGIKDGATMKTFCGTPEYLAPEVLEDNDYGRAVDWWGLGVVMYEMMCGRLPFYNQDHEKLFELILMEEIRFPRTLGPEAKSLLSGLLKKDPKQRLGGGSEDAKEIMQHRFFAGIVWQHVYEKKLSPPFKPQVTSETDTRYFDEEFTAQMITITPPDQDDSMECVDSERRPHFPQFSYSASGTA

| SMILES | Ki [1] | residual activity [2] [%] | residual activity [3] [%] | residual activity [4] [%] | residual activity [5] [%] | residual activity [6] [%] | residual activity [7] [%] | residual activity [8] [%] | residual activity [9] [%] | residual activity [10] [%] | residual activity [11] [%] | residual activity [12] [%] | residual activity [13] [%] | residual activity [14] [%] | residual activity [15] [%] | residual activity [16] [%] | residual activity [17] [%] | residual activity [18] [%] | residual activity [19] [%] | residual activity [20] [%] | further results |
| --- | --- | --- | --- | --- | --- | --- | --- | --- | --- | --- | --- | --- | --- | --- | --- | --- | --- | --- | --- | --- | --- |
| COCCOc1nc(-c2ccc(Cl)nc2)nc2c1CN(C(=O)c1ncn3ccccc13)CC2 [THPP-1] | 1.2 µM (not active) | 100 | 82 | 100 | 47 | 100 | 93 | 100 | 100 | 62 | 100 | 61 | 100 | 100 | 82 | 65 | 100 | 90 | 100 | 70 | residual activity [21]: 73%; residual activity [22]: 100%; residual activity [23]: 73%; residual activity [24]: 100%; residual activity [25]: 100%; residual activity [26]: 100%; residual activity [27]: 100%; residual activity [28]: 100%; residual activity [29]: 100%; residual activity [30]: 100%; residual activity [31]: 100%; residual activity [32]: 100%; residual activity [33]: 97%; residual activity [34]: 82%; residual activity [35]: 100%; residual activity [36]: 91%; residual activity [37]: 100%; residual activity [38]: 100%; inhibition [39]: 1.3% |
| CC(C)CC(=O)N1CCc2nc(-c3ccc(Br)cc3)nc(N(C)Cc3ccccc3)c2C1 [THPP-1-NC] | > 100 µM (not active) | 99 | 92 | 100 | 64 | 100 | 100 | 100 | 100 | 91 | 100 | 74 | 100 | 100 | 82 | 73 | 100 | 98 | 100 | 67 | residual activity [21]: 88%; residual activity [22]: 100%; residual activity [23]: 84%; residual activity [24]: 100%; residual activity [25]: 92%; residual activity [26]: 100%; residual activity [27]: 100%; residual activity [28]: 100%; residual activity [29]: 100%; residual activity [30]: 100%; residual activity [31]: 100%; residual activity [32]: 100%; residual activity [33]: 100%; residual activity [34]: 67%; residual activity [35]: 100%; residual activity [36]: 99%; residual activity [37]: 100%; residual activity [38]: 100%; inhibition [39]: 48% |
